Test results published in patent US10633419B2, “Immunomodulators” (BRISTOL-MYERS SQUIBB COMPANY, priority 2014, dated 2020).
Positions of bridges follow the written chain, without caps; N, C: chain ends. Non-standard residues stand in square brackets, D forms with d. Residues, ends and D or L forms follow the SMILES beside them. *: point of attachment. CH3O(CH2CH2O)11CH2CH2CO = COCCOCCOCCOCCOCCOCCOCCOCCOCCOCCOCCOCCC(=O)*; X4 = O=C(O)CCCCCCCCCCCCCCCCC(=O)N[C@@H](CC(=O)NCCCOCCOCCOCCCN*)C(=O)O; Trp(1-CH2COOH) = N[C@@H](Cc1cn(CC(=O)O)c2ccccc12)C(=O)O; X9 = O=C(O)CCCCCCCCCCCCCCCCC(=O)N[C@@H](CCN*)C(=O)O; Phe(3,4,5-F3) = N[C@@H](Cc1cc(F)c(F)c(F)c1)C(=O)O; Phe(4-F) = N[C@@H](Cc1ccc(F)cc1)C(=O)O; d(cisHyp) = O=C(O)[C@H]1C[C@@H](O)CN1; Bta = N[C@@H](Cc1csc2ccccc12)C(=O)O; Hyp = O=C(O)[C@@H]1C[C@@H](O)CN1; NMeF = CN[C@@H](Cc1ccccc1)C(=O)O; dHyp = O=C(O)[C@H]1C[C@H](O)CN1; NMeNle = CCCC[C@H](NC)C(=O)O; Pip = O=C(O)[C@@H]1CCCCN1; dPip = O=C(O)[C@H]1CCCCN1; NMeA = CN[C@@H](C)C(=O)O; Pra = C#CC[C@H](N)C(=O)O; Aun = NCCCCCCCCCCC(=O)O; Dab = NCC[C@H](N)C(=O)O; Dap = NC[C@H](N)C(=O)O

These compounds were tested against T1, PD-L1 (Homo sapiens, UniProt Q9NZQ7) (assay: PD-1/PD-L1 Homogenous Time-Resolved Fluorescence (HTRF) binding assay (PD-1-Ig/PD-L1-His)). Conditions: inhibition of PD-1-Ig binding to PD-L1-TVMV-His; value given as range class; read-out: HTRF IC50.
T1 construct: hPDL1(19-239)-TVMV-His; made in house; host or cells: HEK293T
T1 sequence (Q9NZQ7 with tags, fused parts or gaps): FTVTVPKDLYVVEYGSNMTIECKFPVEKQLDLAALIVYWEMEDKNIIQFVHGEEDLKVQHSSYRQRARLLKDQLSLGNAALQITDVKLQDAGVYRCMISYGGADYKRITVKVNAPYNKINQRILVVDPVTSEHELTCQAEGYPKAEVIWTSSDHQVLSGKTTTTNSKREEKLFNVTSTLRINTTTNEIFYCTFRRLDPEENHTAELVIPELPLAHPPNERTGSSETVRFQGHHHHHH
Summary of the method: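 Inhibitors pre-incubated 15 min with PD-L1-His (10 nM final), then PD-1-Ig (20 nM final) added for 15 min in dPBS/0.1% BSA/0.05% Tween-20. Eu-cryptate anti-Ig (1 nM) and APC anti-His (20 nM) added, 30 min equilibration, 665/620 nm HTRF ratio read.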

Row | SMILES | IC50 [nM]
1 | CCCC[C@H]1C(=O)N(C)[C@@H](CCCC)C(=O)N[C@@H](CC(C)C)C(=O)N[C@@H](C(=O)NCC(=O)N[C@@H](CC(=O)O)C(=O)NCCCOCCOCCOCCCNC(=O)C[C@H](NC(=O)CCCCCCCCCCCCCCCCC(=O)O)C(=O)O)CSCC(=O)N[C@@H](Cc2ccc(O)cc2)C(=O)N(C)[C@@H](C)C(=O)N[C@@H](CC(N)=O)C(=O)N2CCC[C@@H]2C(=O)N[C@@H](CN)C(=O)N[C@@H](CC(C)C)C(=O)N2C[C@@H](O)C[C@@H]2C(=O)N[C@@H](Cc2c[nH]c3ccccc23)C(=O)N[C@@H](CCN)C(=O)N[C@@H](Cc2cn(CC(=O)O)c3ccccc23)C(=O)N1C [Example 11237] ({CH2CO}-Y[NMeA]N[dP][Dap]L[dHyp]W[Dab][Trp(1-CH2COOH)][NMeNle][NMeNle]L[dC]GD-X4; thioether N-14) | 10 to 99
2 | CCCC[C@H]1C(=O)N2C[C@H](O)C[C@@H]2C(=O)N[C@@H](CC(=O)O)C(=O)N[C@@H](C(C)C)C(=O)N(C)[C@@H](Cc2ccccc2)C(=O)N[C@@H](Cc2ccc(O)cc2)C(=O)N2CCCC[C@@H]2C(=O)N[C@@H](Cc2c[nH]c3ccccc23)C(=O)N[C@@H](Cc2ccc(O)cc2)C(=O)N[C@@H](CC(C)C)C(=O)N[C@H](C(=O)NCC(=O)NCC(=O)NCC(=O)N[C@@H](CCCCNC(=O)CCOCCOCCOCCOCCOCCOCCOCCOCCOCCOCCOCCOC)C(N)=O)CSCC(=O)N[C@@H](Cc2cc(F)c(F)c(F)c2)C(=O)N(C)[C@@H](Cc2ccccc2)C(=O)N1C [Example 3624] ({CH2CO}-[Phe(3,4,5-F3)][NMeF][NMeNle][d(cisHyp)]DV[NMeF]Y[dPip]WYLCGGGK(CH3O(CH2CH2O)11CH2CH2CO)-NH2; thioether N-13) | 0.3 to 9.9
3 | C#CC[C@H](NC(=O)CNC(=O)[C@@H]1CSCC(=O)N[C@@H](Cc2ccc(O)cc2)C(=O)N(C)[C@@H](C)C(=O)N[C@@H](CC(N)=O)C(=O)N2CCC[C@H]2C(=O)N[C@@H](CN)C(=O)N[C@@H](CC(C)C)C(=O)N2C[C@H](O)C[C@H]2C(=O)N[C@@H](Cc2c[nH]c3ccccc23)C(=O)N[C@@H](CO)C(=O)N[C@@H](Cc2csc3ccccc23)C(=O)N(C)[C@@H](CCCC)C(=O)N(C)[C@@H](CCCC)C(=O)N[C@@H](CCCNC(=N)N)C(=O)N1)C(N)=O [INT 1300A] ({CH2CO}-Y[NMeA]NP[Dap]L[Hyp]WS[Bta][NMeNle][NMeNle]RCG[Pra]-NH2; thioether N-14) | 0.3 to 9.9
4 | CCCC[C@H]1C(=O)N(C)[C@@H](CCCC)C(=O)N[C@@H](CC(C)C)C(=O)N[C@H](C(=O)NCC(=O)N[C@@H](CC(=O)NCC[C@H](NC(=O)CCCCCCCCCCCCCCCCC(=O)O)C(=O)O)C(=O)O)CSCC(=O)N[C@@H](Cc2ccc(F)cc2)C(=O)N2CCCC[C@H]2C(=O)N[C@@H](CC(=O)O)C(=O)N2CCC[C@H]2C(=O)N[C@@H](CN)C(=O)N[C@@H](CC(C)C)C(=O)N2C[C@H](O)C[C@H]2C(=O)N[C@@H](Cc2c[nH]c3ccccc23)C(=O)N[C@@H](CCN)C(=O)N[C@@H](Cc2cn(CC(=O)O)c3ccccc23)C(=O)N1C [Example 13147] ({CH2CO}-[Phe(4-F)][Pip]DP[Dap]L[Hyp]W[Dab][Trp(1-CH2COOH)][NMeNle][NMeNle]LCGD(X9)-OH; thioether N-14) | 100 to 1600

Other lines, results leading:

Row | IC50 [nM] | SMILES
5 | 0.3 to 9.9 | C#CC[C@H](NC(=O)CNC(=O)[C@@H]1CSCC(=O)N[C@@H](Cc2ccc(O)cc2)C(=O)N(C)[C@@H](C)C(=O)N[C@@H](CC(=O)O)C(=O)N2CCC[C@H]2C(=O)N[C@@H](Cc2c[nH]cn2)C(=O)N[C@@H](CCC(N)=O)C(=O)N2C[C@H](O)C[C@H]2C(=O)N[C@@H](Cc2c[nH]c3ccccc23)C(=O)N[C@@H](CO)C(=O)N[C@@H](Cc2c[nH]c3ccccc23)C(=O)N(C)[C@@H](CCCC)C(=O)N(C)[C@@H](CCCC)C(=O)N[C@@H](CCC(=O)O)C(=O)N1)C(N)=O [INT 1400H, ClAc-Tyr-mAla-Asp-Pro-His-Gln-Hyp-Trp-Ser-Trp-mNle-mNle-Glu-Cys-Gly-[(S)-propargylglycine]] ({CH2CO}-Y[NMeA]DPHQ[Hyp]WSW[NMeNle][NMeNle]ECG[Pra]-NH2; thioether N-14)
6 | 10 to 99 | CCCC[C@H]1C(=O)N(C)[C@@H](CCCC)C(=O)N[C@@H](CC(C)C)C(=O)N[C@H](C(=O)NCC(=O)NCC(=O)NCC(=O)NCCCCCCCCCCC(=O)O)CSCC(=O)N[C@@H](Cc2ccc(O)cc2)C(=O)N(C)[C@@H](C)C(=O)N[C@@H](CC(=O)O)C(=O)N2CCC[C@H]2C(=O)N[C@@H](Cc2cnc[nH]2)C(=O)N[C@@H](CCC(=O)O)C(=O)N2C[C@H](O)C[C@H]2C(=O)N[C@@H](Cc2c[nH]c3ccccc23)C(=O)N[C@@H](CCN)C(=O)N[C@@H](Cc2cn(CC(=O)O)c3ccccc23)C(=O)N1C [Example 11098] ({CH2CO}-Y[NMeA]DPHE[Hyp]W[Dab][Trp(1-CH2COOH)][NMeNle][NMeNle]LCGGG[Aun]-OH; thioether N-14)
7 | 10 to 99 | CCCC[C@H]1C(=O)N(C)[C@@H](CCCC)C(=O)N[C@@H](CCC(=O)O)C(=O)N[C@H](C(=O)NCC(=O)N[C@@H](Cc2cn(CC[C@H](NC(=O)CCCCCCCCCCCCCCC(=O)O)C(=O)O)nn2)C(N)=O)CSCC(=O)N[C@@H](Cc2ccc(O)cc2)C(=O)N(C)[C@@H](C)C(=O)N[C@@H](CC(=O)O)C(=O)N2CCC[C@H]2C(=O)N[C@@H](Cc2c[nH]cn2)C(=O)N[C@@H](CCC(N)=O)C(=O)N2C[C@H](O)C[C@H]2C(=O)N[C@@H](Cc2c[nH]c3ccccc23)C(=O)N[C@@H](CO)C(=O)N[C@@H](Cc2c[nH]c3ccccc23)C(=O)N1C [Example 14068]
